From PubChem BioAssay AID180 (DTP/NCI, 2004)
Several values for one entry are separate records, joined by “and”; a condition that tells them apart may be missing. Equal values may be shown once.

Test system: BDF1 mice, Adenocarcinoma 755 s.c., tumor weight T/C
Assay: NCI In Vivo Anticancer Drug Screen. Data for tumor model Adenocarcinoma 755 (subcutaneous) in B6D2F1 (BDF1) mice
Settings: endpoint: mean tumor weight, higher = larger tumour
In short: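 Transplantable tumor implanted; mice dosed with compound or vehicle; survival or tumor size recorded; ratio of treated to vehicle control reported.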

[1] = dose: 28.0 mg/kg/injection, schedule: Q01DX011 (ip), vehicle: saline
[2] = dose: 50.0 mg/kg/injection, schedule: Q01DX011 (ip), vehicle: saline
[3] = dose: 100.0 mg/kg/injection, schedule: Q01DX011 (ip), vehicle: saline
[4] = dose: 200.0 mg/kg/injection, schedule: Q01DX011 (ip), vehicle: saline
[5] = dose: 31.0 mg/kg/injection, schedule: Q01DX011 (ip), vehicle: methylcellulose (MC)
[6] = dose: 62.0 mg/kg/injection, schedule: Q01DX011 (ip), vehicle: methylcellulose (MC)
[7] = dose: 125.0 mg/kg/injection, schedule: Q01DX011 (ip), vehicle: methylcellulose (MC)

`O=[N+]([O-])c1ccc(C=Nc2ccc3c(c2)C(Br)c2ccccc2-3)cc1` (configuration not stated) was tested, and the T/C [1] was 113 % of control, the T/C (dose: 55.0 mg/kg/injection, schedule: Q01DX011 (ip), vehicle: saline) was 96 % of control and the T/C (dose: 110.0 mg/kg/injection, schedule: Q01DX011 (ip), vehicle: saline) was 73 % of control. For the same molecule, the T/C (dose: 220.0 mg/kg/injection, schedule: Q01DX011 (ip), vehicle: saline) was 40 % of control and 44 % of control and the T/C (dose: 440.0 mg/kg/injection, schedule: Q01DX011 (ip), vehicle: saline) was 39 % of control.

In the case of `CN(C)[C@@H]1C(=O)C(C(=O)NCNc2nc3n[nH]nc3c(=O)[nH]2)=C(O)[C@@]2(O)C(=O)C3=C(O)c4c(O)cccc4[C@@](C)(O)[C@H]3C[C@@H]12`, the T/C (dose: 25.0 mg/kg/injection, schedule: Q01DX011 (ip), vehicle: saline) is reported as 89 % of control, the T/C [2] is reported as 93 % of control and the T/C [3] is reported as 79 % of control. The T/C [4] was 40 % of control.

`Cc1ccc(C(=O)OCC2OC(n3cnc4c(=S)nc(N)[nH]c43)C(OC(=O)c3ccc(C)cc3)C2OC(=O)c2ccc(C)cc2)cc1` (configuration not stated) was tested, and the T/C (dose: 100.0 mg/kg/injection, schedule: Q01DX011 (ip), vehicle: carboxymethylcellulose (CMC)) was 81 % of control and the T/C (dose: 200.0 mg/kg/injection, schedule: Q01DX011 (ip), vehicle: carboxymethylcellulose (CMC)) was 4 % of control and 12 % of control.

In the case of `C[C@]12CC[C@H](O)C[C@@H]1CC[C@@H]1[C@@H]2C(=O)C[C@]2(C)C3=CC(=O)O[C@H]3C[C@@H]12`, the T/C (dose: 5.0 mg/kg/injection, schedule: Q01DX011 (sc), vehicle: steriod suspending solution) is reported as 73 % of control, the T/C (dose: 10.0 mg/kg/injection, schedule: Q01DX011 (sc), vehicle: steriod suspending solution) is reported as 69 % of control and the T/C (dose: 20.0 mg/kg/injection, schedule: Q01DX011 (sc), vehicle: steriod suspending solution) is reported as 74 % of control. For the same molecule, the T/C (dose: 40.0 mg/kg/injection, schedule: Q01DX011 (sc), vehicle: steriod suspending solution) was 77 % of control.

With `O=c1[nH]cc(C(F)(F)F)c(=O)[nH]1` the T/C [2] was 53 % of control, the T/C [3] was 65 % of control and the T/C [4] was 38 % of control and 57 % of control. The T/C (dose: 300.0 mg/kg/injection, schedule: Q01DX011 (ip), vehicle: saline) was 40 % of control and 56 % of control, the T/C (dose: 400.0 mg/kg/injection, schedule: Q01DX011 (ip), vehicle: saline) was 32 % of control and 34 % of control and the T/C (dose: 500.0 mg/kg/injection, schedule: Q01DX011 (ip), vehicle: saline) was 56 % of control and 65 % of control. For the same molecule, the T/C (dose: 600.0 mg/kg/injection, schedule: Q01DX011 (ip), vehicle: saline) was 37 % of control.

With `COC(=O)C1=CO[C@H](C)[C@@H]2CN3CCc4c([nH]c5ccccc45)[C@@H]3C[C@H]12` the T/C (dose: 9.0 mg/kg/injection, schedule: Q01DX011 (ip), vehicle: carboxymethylcellulose (CMC)) was 95 % of control, the T/C (dose: 17.5 mg/kg/injection, schedule: Q01DX011 (ip), vehicle: carboxymethylcellulose (CMC)) was 92 % of control and the T/C (dose: 35.0 mg/kg/injection, schedule: Q01DX011 (ip), vehicle: carboxymethylcellulose (CMC)) was 116 % of control. The T/C (dose: 70.0 mg/kg/injection, schedule: Q01DX011 (ip), vehicle: carboxymethylcellulose (CMC)) was 93 % of control.

With `CC1CN1P(=S)(N1CCCC1)N1CC1C` (configuration not stated) the T/C (dose: 14.0 mg/kg/injection, schedule: Q01DX011 (ip), vehicle: carboxymethylcellulose (CMC)) was 82 % of control, the T/C (dose: 14.0 mg/kg/injection, schedule: Q01DX011 (ip), vehicle: saline) was 63 % of control and the T/C (dose: 28.0 mg/kg/injection, schedule: Q01DX011 (ip), vehicle: carboxymethylcellulose (CMC)) was 58 % of control. The T/C [1] was 43 % of control, the T/C (dose: 57.0 mg/kg/injection, schedule: Q01DX011 (ip), vehicle: carboxymethylcellulose (CMC)) was 15 % of control and the T/C (dose: 57.0 mg/kg/injection, schedule: Q01DX011 (ip), vehicle: saline) was 21 % of control.

In the case of `CCCCn1cnc2c(SCc3ccc(Cl)cc3Cl)nc(N)nc21`, the T/C (dose: 50.0 mg/kg/injection, schedule: Q01DX011 (ip), vehicle: methylcellulose (MC)) is reported as 61 % of control, the T/C (dose: 100.0 mg/kg/injection, schedule: Q01DX011 (ip), vehicle: methylcellulose (MC)) is reported as 46 % of control and the T/C (dose: 200.0 mg/kg/injection, schedule: Q01DX011 (ip), vehicle: methylcellulose (MC)) is reported as 35 % of control. The T/C (dose: 400.0 mg/kg/injection, schedule: Q01DX011 (ip), vehicle: methylcellulose (MC)) was 5 % of control.

In the case of `Cn1c(=O)c2c(nc(N/N=C/C(Cl)Cl)n2C)n(C)c1=O`, the T/C (dose: 2.8 mg/kg/injection, schedule: Q01DX011 (ip), vehicle: methylcellulose (MC)) is reported as 79 % of control and the T/C (dose: 8.3 mg/kg/injection, schedule: Q01DX011 (ip), vehicle: methylcellulose (MC)) is reported as 71 % of control.

In the case of `CN(N=O)C(=O)C1CC(=O)NC(=O)C1`, the T/C (dose: 2.5 mg/kg/injection, schedule: Q01DX011 (ip), vehicle: carboxymethylcellulose (CMC)) is reported as 39 % of control, the T/C (dose: 5.0 mg/kg/injection, schedule: Q01DX011 (ip), vehicle: carboxymethylcellulose (CMC)) is reported as 102 % of control and the T/C (dose: 10.0 mg/kg/injection, schedule: Q01DX011 (ip), vehicle: carboxymethylcellulose (CMC)) is reported as 114 % of control.

`CCC(C)n1ncc2c(N(C)C)ncnc21` (configuration not stated) was tested, and the T/C (dose: 16.25 mg/kg/injection, schedule: Q01DX011 (ip), vehicle: saline) was 54 % of control and 73 % of control, the T/C (dose: 32.5 mg/kg/injection, schedule: Q01DX011 (ip), vehicle: saline) was 42 % of control and 46 % of control and the T/C (dose: 65.0 mg/kg/injection, schedule: Q01DX011 (ip), vehicle: saline) was 6 % of control.

For `O=P(OCC1OC(n2cnc3c(=S)nc[nH]c32)C(O)C1O)(Oc1ccccc1)Oc1ccccc1` (configuration not stated), the T/C (dose: 4.0 mg/kg/injection, schedule: Q01DX011 (ip), vehicle: methylcellulose (MC)) was 89 % of control, the T/C (dose: 8.0 mg/kg/injection, schedule: Q01DX011 (ip), vehicle: methylcellulose (MC)) was 88 % of control and the T/C (dose: 16.0 mg/kg/injection, schedule: Q01DX011 (ip), vehicle: methylcellulose (MC)) was 41 % of control. For the same molecule, the T/C [5] was 39 % of control, the T/C [6] was 36 % of control and the T/C [7] was 34 % of control.

For `CCC(C)SC1=NC=NC2=NC=NC21` (configuration not stated), the T/C (dose: 9.0 mg/kg/injection, schedule: Q01DX011 (ip), vehicle: other) was 56 % of control, the T/C (dose: 13.0 mg/kg/injection, schedule: Q01DX011 (ip), vehicle: other) was 33 % of control and the T/C (dose: 20.0 mg/kg/injection, schedule: Q01DX011 (ip), vehicle: other) was 6 % of control. For the same molecule, the T/C (dose: 30.0 mg/kg/injection, schedule: Q01DX011 (ip), vehicle: other) was 6 % of control.

`CCc1c(Cl)nc(N)nc1Nc1ccc(Br)cc1` was tested, and the T/C [5] was 118 % of control, the T/C [6] was 105 % of control and the T/C [7] was 106 % of control. For the same molecule, the T/C (dose: 250.0 mg/kg/injection, schedule: Q01DX011 (ip), vehicle: methylcellulose (MC)) was 116 % of control.

For `C[N+](C)(C)c1ncnc2c1ncn2C1CCCO1` (configuration not stated), the T/C (dose: 18.7 mg/kg/injection, schedule: Q01DX011 (ip), vehicle: saline) was 100 % of control, the T/C (dose: 37.5 mg/kg/injection, schedule: Q01DX011 (ip), vehicle: saline) was 5 % of control and the T/C [3] was 2 % of control.

For `Cn1c(=O)c2[nH]c(/N=N/N3CCCCC3)nc2n(C)c1=O`, the T/C (dose: 25.0 mg/kg/injection, schedule: Q01DX011 (ip), vehicle: methylcellulose (MC)) was 61 % of control and the T/C (dose: 75.0 mg/kg/injection, schedule: Q01DX011 (ip), vehicle: methylcellulose (MC)) was 69 % of control and 70 % of control.

`CC(=O)N(C)c1ccccc1` was tested, and the T/C (dose: 12.5 mg/kg/injection, schedule: Q01DX011 (ip), vehicle: other) was 69 % of control, the T/C (dose: 25.0 mg/kg/injection, schedule: Q01DX011 (ip), vehicle: other) was 88 % of control and the T/C (dose: 50.0 mg/kg/injection, schedule: Q01DX011 (ip), vehicle: other) was 73 % of control. The T/C (dose: 100.0 mg/kg/injection, schedule: Q01DX011 (ip), vehicle: other) was 95 % of control.

For `Nc1nc(SCc2ccccn2)c2ncn(C3CCCC3)c2n1`, the T/C (dose: 1.1 mg/kg/injection, schedule: Q01DX011 (ip), vehicle: carboxymethylcellulose (CMC)) was 79 % of control, the T/C (dose: 2.3 mg/kg/injection, schedule: Q01DX011 (ip), vehicle: carboxymethylcellulose (CMC)) was 96 % of control and the T/C (dose: 4.6 mg/kg/injection, schedule: Q01DX011 (ip), vehicle: carboxymethylcellulose (CMC)) was 74 % of control. The T/C (dose: 9.3 mg/kg/injection, schedule: Q01DX011 (ip), vehicle: carboxymethylcellulose (CMC)) was 22 % of control and the T/C (dose: 37.5 mg/kg/injection, schedule: Q01DX011 (ip), vehicle: carboxymethylcellulose (CMC)) was 2 % of control.
